In the experiment the test system is MV-4-11 cells. Nature of the experiment: Gene expression microarray analysis (Affymetrix PrimeView) and GSEA. It counts as cell-based, human. Also noted: RFU PODN (11730768_x_at) / Fold change /veh PODN (11730768_x_at) / RFU LINC00158 (11744669_a_at) / Fold change /veh LINC00158 (11744669_a_at) / RFU DUSP10 (11751237_a_at) / Fold change /veh DUSP10 (11751237_a_at) / RFU ID3 (11757404_x_at) / Fold change /veh ID3 (11757404_x_at) / RFU PLEKHG5 (11737974_s_at) / Fold change /veh PLEKHG5 (11737974_s_at) / RFU LRRC4B (11730491_at) / Fold change /veh LRRC4B (11730491_at) / RFU GIMAP4 (11747438_a_at) / Fold change /veh GIMAP4 (11747438_a_at) / RFU KRT8 (11758183_x_at) / Fold change /veh KRT8 (11758183_x_at) / RFU CNN1 (11734310_a_at) / Fold change /veh CNN1 (11734310_a_at) / RFU VPS37D (11726825_at) / Fold change /veh VPS37D (11726825_at) / RFU C10orf10 (11716522_x_at) / Fold change /veh C10orf10 (11716522_x_at) / RFU KIR2DL2 /// KIR2DL4 /// KIR2DL5A /// KIR2DL5B /// KIR2DS1 /// KIR2DS2 /// KIR2DS3 /// KIR2DS4 /// KIR3DL3 /// KIR3DL3 /// KIR3DS1 (11738374_at) / Fold change /veh KIR2DL2 /// KIR2DL4 /// KIR2DL5A /// KIR2DL5B /// KIR2DS1 /// KIR2DS2 /// KIR2DS3 /// KIR2DS4 /// KIR3DL3 /// KIR3DL3 /// KIR3DS1 (11738374_at) / RFU C1QL1 (11718748_at) / Fold change /veh C1QL1 (11718748_at) / RFU TMPRSS4 (11747572_a_at) / Fold change /veh TMPRSS4 (11747572_a_at) / RFU HAMP (11756126_x_at) / Fold change /veh HAMP (11756126_x_at) / RFU RNFT2 (11725882_a_at) / Fold change /veh RNFT2 (11725882_a_at) / RFU NR4A2 (11747474_a_at) / Fold change /veh NR4A2 (11747474_a_at) / RFU ABCC12 (11746883_a_at) / Fold change /veh ABCC12 (11746883_a_at) / RFU TMEM136 (11760407_x_at) / Fold change /veh TMEM136 (11760407_x_at) / RFU CLDN22 /// WWC2 (11732394_at) / Fold change /veh CLDN22 /// WWC2 (11732394_at) / RFU HLA-DPB1 (11760878_x_at) / Fold change /veh HLA-DPB1 (11760878_x_at) / RFU SPINT1 (11716480_a_at) / Fold change /veh SPINT1 (11716480_a_at) / RFU GAP43 (11754022_s_at) / Fold change /veh GAP43 (11754022_s_at) / RFU A4GNT (11735810_at) / Fold change /veh A4GNT (11735810_at) / RFU PRB3 (11715151_x_at) / Fold change /veh PRB3 (11715151_x_at) / RFU TUBB4B (11761932_at) / Fold change /veh TUBB4B (11761932_at) / RFU CAPN14 (11732068_a_at) / Fold change /veh CAPN14 (11732068_a_at) / RFU TMCC2 (11721928_a_at) / Fold change /veh TMCC2 (11721928_a_at) / RFU IRGQ (11745062_a_at) / Fold change /veh IRGQ (11745062_a_at) / RFU FAM174B (11720279_a_at) / Fold change /veh FAM174B (11720279_a_at) / RFU TMPRSS4 (11748680_a_at) / Fold change /veh TMPRSS4 (11748680_a_at) / RFU FAM212B (11763350_a_at) / Fold change /veh FAM212B (11763350_a_at) / RFU PLEKHG5 (11743358_a_at) / Fold change /veh PLEKHG5 (11743358_a_at) / RFU ZSCAN30 (11745921_a_at) / Fold change /veh ZSCAN30 (11745921_a_at) / RFU CMKLR1 (11741424_a_at) / Fold change /veh CMKLR1 (11741424_a_at) / RFU LOC101060620 /// MAPK8IP1 (11723275_at) / Fold change /veh LOC101060620 /// MAPK8IP1 (11723275_at) / RFU SPTSSB (11747773_x_at) / Fold change /veh SPTSSB (11747773_x_at) / RFU PRSS12 (11739890_at) / Fold change /veh PRSS12 (11739890_at) / RFU BIN1 (11741810_x_at) / Fold change /veh BIN1 (11741810_x_at) / RFU WNT11 (11732464_a_at) / Fold change /veh WNT11 (11732464_a_at) / RFU C10orf10 (11716521_a_at) / Fold change /veh C10orf10 (11716521_a_at) / RFU C5orf56 (11738089_at) / Fold change /veh C5orf56 (11738089_at) / RFU CYB561 (11721691_x_at) / Fold change /veh CYB561 (11721691_x_at) / RFU ANKRD19P (11752326_a_at) / Fold change /veh ANKRD19P (11752326_a_at) / RFU OR2T12 /// OR2T33 /// OR2T8 (11738714_s_at) / Fold change /veh OR2T12 /// OR2T33 /// OR2T8 (11738714_s_at) / RFU VCAN (11748164_a_at) / Fold change /veh VCAN (11748164_a_at) / RFU JSRP1 (11732532_at) / Fold change /veh JSRP1 (11732532_at) / RFU KRTAP10-11 (11738290_x_at) / Fold change /veh KRTAP10-11 (11738290_x_at) / RFU MYO3A (11730013_a_at) / Fold change /veh MYO3A (11730013_a_at) / RFU EBF3 (11725865_a_at) / Fold change /veh EBF3 (11725865_a_at) / RFU CAMK2N1 (11719241_x_at) / Fold change /veh CAMK2N1 (11719241_x_at) / RFU C5orf56 (11738088_a_at) / Fold change /veh C5orf56 (11738088_a_at) / RFU OLFML3 (11715873_a_at) / Fold change /veh OLFML3 (11715873_a_at) / RFU LOC100653217 /// NTM (11731650_a_at) / Fold change /veh LOC100653217 /// NTM (11731650_a_at) / RFU MAPK11 (11762145_a_at) / Fold change /veh MAPK11 (11762145_a_at) / RFU FIZ1 (11724087_x_at) / Fold change /veh FIZ1 (11724087_x_at) / RFU OASL (11726364_x_at) / Fold change /veh OASL (11726364_x_at) / RFU SOX15 (11748057_x_at) / Fold change /veh SOX15 (11748057_x_at) / RFU CD79A (11719716_a_at) / Fold change /veh CD79A (11719716_a_at) / RFU HIST1H1D (11736915_at) / Fold change /veh HIST1H1D (11736915_at) / RFU CASKIN2 (11723855_a_at) / Fold change /veh CASKIN2 (11723855_a_at) / RFU LOC730098 (11760151_x_at) / Fold change /veh LOC730098 (11760151_x_at) / RFU OR4N2 (11742367_at) / Fold change /veh OR4N2 (11742367_at) / RFU PRRT2 (11749266_a_at) / Fold change /veh PRRT2 (11749266_a_at) / RFU SNX32 (11753110_a_at) / Fold change /veh SNX32 (11753110_a_at) / RFU CDHR5 (11726645_a_at) / Fold change /veh CDHR5 (11726645_a_at) / RFU RCAN1 (11760418_a_at) / Fold change /veh RCAN1 (11760418_a_at) / RFU FAM167A (11723789_a_at) / Fold change /veh FAM167A (11723789_a_at) / RFU FAM26E (11764081_at) / Fold change /veh FAM26E (11764081_at) / RFU ISYNA1 (11749810_s_at) / Fold change /veh ISYNA1 (11749810_s_at) / RFU ACY1 (11761880_at) / Fold change /veh ACY1 (11761880_at) / RFU 11764098_at / Fold change /veh 11764098_at / RFU SAMD14 (11745864_x_at) / Fold change /veh SAMD14 (11745864_x_at) / RFU NPB (11741838_a_at) / Fold change /veh NPB (11741838_a_at) / RFU TMPRSS6 (11731388_a_at) / Fold change /veh TMPRSS6 (11731388_a_at) / RFU KRTAP10-2 (11738614_at) / Fold change /veh KRTAP10-2 (11738614_at) / RFU ARHGAP8 /// PRR5-ARHGAP8 (11727945_x_at) / Fold change /veh ARHGAP8 /// PRR5-ARHGAP8 (11727945_x_at) / RFU KRTAP5-7 /// NADSYN1 (11734609_at) / Fold change /veh KRTAP5-7 /// NADSYN1 (11734609_at) / RFU RASL12 (11751679_a_at) / Fold change /veh RASL12 (11751679_a_at) / RFU CDKN2B (11736163_a_at) / Fold change /veh CDKN2B (11736163_a_at) / RFU PRF1 (11729649_at) / Fold change /veh PRF1 (11729649_at) / RFU, ZNF638 /// ZNF638-IT1 / Fold change vs veh, ZNF638 /// ZNF638-IT1 / RFU, PANK3 / Fold change vs veh, PANK3 / RFU, SH3YL1 / Fold change vs veh, SH3YL1 / RFU, ZEB2 / Fold change vs veh, ZEB2 / RFU, NRIP1 / Fold change vs veh, NRIP1 / RFU, PTTG1IP / Fold change vs veh, PTTG1IP / RFU, CAPN2 / Fold change vs veh, CAPN2 / RFU, MED14 / Fold change vs veh, MED14 / RFU, SNORA58 / Fold change vs veh, SNORA58 / RFU, C1orf63 / Fold change vs veh, C1orf63 / RFU, LRRFIP1 / Fold change vs veh, LRRFIP1 / RFU, NDUFAF7 / Fold change vs veh, NDUFAF7 / RFU, SLC12A2 / Fold change vs veh, SLC12A2 / RFU, IBTK / Fold change vs veh, IBTK / RFU, ESF1 / Fold change vs veh, ESF1 / Fold change vs veh, TMEM50B / RFU, TAOK1 / Fold change vs veh, TAOK1 / RFU, ACBD3 / Fold change vs veh, ACBD3 / RFU, TMA16 / Fold change vs veh, TMA16 / RFU, RWDD3 / Fold change vs veh, RWDD3 / RFU, BCAT1 / Fold change vs veh, BCAT1 / RFU, EDEM3 / Fold change vs veh, EDEM3 / RFU, TMEM33 / Fold change vs veh, TMEM33 / RFU, WDR75 / Fold change vs veh, WDR75 / RFU, AHCTF1 / Fold change vs veh, AHCTF1 / RFU, TFRC / Fold change vs veh, TFRC / RFU, ZDHHC17 / Fold change vs veh, ZDHHC17 / RFU, NOM1 / Fold change vs veh, NOM1 / RFU, ARL8B / Fold change vs veh, ARL8B / RFU, ZBTB11 / Fold change vs veh, ZBTB11 / RFU, TAMM41 / Fold change vs veh, TAMM41 / RFU, KIAA1704 /// LOC100996395 / Fold change vs veh, KIAA1704 /// LOC100996395 / RFU, ING1 / Fold change vs veh, ING1 / RFU, TRMT61B / Fold change vs veh, TRMT61B / RFU, FUBP3 / Fold change vs veh, FUBP3 / RFU, TP53 / Fold change vs veh, TP53 / RFU, TNKS2 / Fold change vs veh, TNKS2 / RFU, ZFP14 / Fold change vs veh, ZFP14 / RFU, ACTR2 / Fold change vs veh, ACTR2 / RFU, PPP3R1 / Fold change vs veh, PPP3R1 / RFU, PIK3R1 / Fold change vs veh, PIK3R1 / RFU, HNRNPA1 / Fold change vs veh, HNRNPA1 / RFU, RNF170 / Fold change vs veh, RNF170 / RFU, ZNF28 / Fold change vs veh, ZNF28 / RFU, RNGTT / Fold change vs veh, RNGTT / RFU, OGT / Fold change vs veh, OGT / RFU, BRD1 / Fold change vs veh, BRD1 / RFU, MARS / Fold change vs veh, MARS / RFU, ZNF655 / Fold change vs veh, ZNF655 / RFU, FAHD1 / Fold change vs veh, FAHD1 / RFU, BDP1 / Fold change vs veh, BDP1 / RFU, LRRCC1 / Fold change vs veh, LRRCC1 / RFU, ARID1A / Fold change vs veh, ARID1A / RFU, ZNF146 / Fold change vs veh, ZNF146 / RFU, ZNF330 / Fold change vs veh, ZNF330 / RFU, GPN3 / Fold change vs veh, GPN3 / RFU, C9orf123 / Fold change vs veh, C9orf123 / RFU, N4BP2L2 / Fold change vs veh, N4BP2L2 / RFU, ARFIP1 / Fold change vs veh, ARFIP1 / RFU, FAM179B / Fold change vs veh, FAM179B / RFU, BCL10 / Fold change vs veh, BCL10 / RFU, UHRF1BP1L / Fold change vs veh, UHRF1BP1L / RFU, BET1 / Fold change vs veh, BET1 / RFU, CNOT2 / Fold change vs veh, CNOT2 / RFU, ZNF268 / Fold change vs veh, ZNF268 / Fold change vs veh, ZNF507 / RFU, DGCR2 / Fold change vs veh, DGCR2 / RFU, WDSUB1 / Fold change vs veh, WDSUB1 / Fold change vs veh, HSP90B1 /// MIR3652 / RFU, ADSS / Fold change vs veh, ADSS / RFU, GK / Fold change vs veh, GK / RFU, ZNF148 / Fold change vs veh, ZNF148 / RFU, TAF9 / Fold change vs veh, TAF9 / RFU, SLC1A5 / Fold change vs veh, SLC1A5 / RFU, SLMO2 / Fold change vs veh, SLMO2 / RFU, ABCC4 / Fold change vs veh, ABCC4 / RFU, LOC101060439 /// RAP1B / Fold change vs veh, LOC101060439 /// RAP1B / RFU, RFX7 / Fold change vs veh, RFX7 / RFU, GTPBP10 / Fold change vs veh, GTPBP10 / RFU, CNEP1R1 / Fold change vs veh, CNEP1R1 / RFU, BIVM-ERCC5 /// ERCC5 / Fold change vs veh, BIVM-ERCC5 /// ERCC5 / RFU, ILF3 / Fold change vs veh, ILF3 / RFU 11762660_at / Fold change /veh 11762660_at / RFU VCAN (11757783_s_at) / Fold change /veh VCAN (11757783_s_at) / RFU DDX43 (11728927_at) / Fold change /veh DDX43 (11728927_at) / RFU KRT8 (11758188_x_at) / Fold change /veh KRT8 (11758188_x_at) / RFU NKD1 (11759106_at) / Fold change /veh NKD1 (11759106_at) / RFU SRD5A1 (11742802_a_at) / Fold change /veh SRD5A1 (11742802_a_at) / RFU TPSAB1 /// TPSB2 (11721975_s_at) / Fold change /veh TPSAB1 /// TPSB2 (11721975_s_at) / RFU GSTM3 (11746129_a_at) / Fold change /veh GSTM3 (11746129_a_at) / RFU IL23R (11737362_x_at) / Fold change /veh IL23R (11737362_x_at) / RFU TMEM51 (11727254_a_at) / Fold change /veh TMEM51 (11727254_a_at) / RFU PIWIL2 (11732686_x_at) / Fold change /veh PIWIL2 (11732686_x_at) / RFU ORM1 (11744905_x_at) / Fold change /veh ORM1 (11744905_x_at) / RFU CCDC152 (11743942_at) / Fold change /veh CCDC152 (11743942_at) / RFU ECM1 (11717891_a_at) / Fold change /veh ECM1 (11717891_a_at) / RFU IL23R (11748794_a_at) / Fold change /veh IL23R (11748794_a_at) / RFU TNFAIP8L3 (11732012_x_at) / Fold change /veh TNFAIP8L3 (11732012_x_at) / RFU MBOAT4 (11741988_at) / Fold change /veh MBOAT4 (11741988_at) / RFU 11764193_at / Fold change /veh 11764193_at / RFU TMEM53 (11763286_at) / Fold change /veh TMEM53 (11763286_at) / RFU MAGEB2 (11727129_at) / Fold change /veh MAGEB2 (11727129_at) / RFU TMEM200A (11744735_a_at) / Fold change /veh TMEM200A (11744735_a_at) / RFU CCDC152 (11751479_a_at) / Fold change /veh CCDC152 (11751479_a_at) / RFU FAM211A (11726209_a_at) / Fold change /veh FAM211A (11726209_a_at) / RFU RGS16 (11746705_a_at) / Fold change /veh RGS16 (11746705_a_at) / RFU VCAN (11755009_s_at) / Fold change /veh VCAN (11755009_s_at) / RFU RHOB (11743442_s_at) / Fold change /veh RHOB (11743442_s_at) / RFU RGS16 (11720943_a_at) / Fold change /veh RGS16 (11720943_a_at) / RFU RGS16 (11720944_at) / Fold change /veh RGS16 (11720944_at) / RFU, VPS4B / Fold change vs veh, VPS4B / RFU, CREB1 / Fold change vs veh, CREB1 / RFU, DNAJC13 / Fold change vs veh, DNAJC13 / RFU, GNAQ / Fold change vs veh, GNAQ / RFU, CDK5R1 / Fold change vs veh, CDK5R1 / RFU, ZRANB3 / Fold change vs veh, ZRANB3 / RFU, CUL4A / Fold change vs veh, CUL4A / RFU, CCNY / Fold change vs veh, CCNY / RFU, UFL1 / Fold change vs veh, UFL1 / RFU, COG3 / Fold change vs veh, COG3 / RFU, DIAPH2 / Fold change vs veh, DIAPH2 / RFU, SKA2 / Fold change vs veh, SKA2 / RFU, AFF3 / Fold change vs veh, AFF3 / RFU, LMF1 / Fold change vs veh, LMF1 / RFU, IPO11 / Fold change vs veh, IPO11 / RFU, DFFB / Fold change vs veh, DFFB / RFU, FOXP1 / Fold change vs veh, FOXP1 / RFU, CARD8 / Fold change vs veh, CARD8 / RFU, STRN3 / Fold change vs veh, STRN3 / RFU, ADK / Fold change vs veh, ADK / RFU, RASSF2 / Fold change vs veh, RASSF2 / RFU, WIPF1 / Fold change vs veh, WIPF1 / RFU, LARP1B / Fold change vs veh, LARP1B / RFU, RASA1 / Fold change vs veh, RASA1 / RFU, RB1 / Fold change vs veh, RB1 / RFU, PPFIA1 / Fold change vs veh, PPFIA1 / RFU, MAT2A / Fold change vs veh, MAT2A / RFU, CCT5 / Fold change vs veh, CCT5 / RFU, WDR92 / Fold change vs veh, WDR92 / RFU, CUX1 / Fold change vs veh, CUX1 / RFU, TTC7A / Fold change vs veh, TTC7A / RFU, TMEM135 / Fold change vs veh, TMEM135 / RFU, DEPTOR / Fold change vs veh, DEPTOR / RFU, CPM / Fold change vs veh, CPM / RFU, DNAJB6 / Fold change vs veh, DNAJB6 / RFU, CACNA2D3 / Fold change vs veh, CACNA2D3 / RFU, DTX4 / Fold change vs veh, DTX4 / RFU, TFCP2 / Fold change vs veh, TFCP2 / RFU, GMCL1 /// GMCL1P1 / Fold change vs veh, GMCL1 /// GMCL1P1 / RFU, AEBP2 / Fold change vs veh, AEBP2 / RFU, SNHG1 /// SNORD22 /// SNORD25 /// SNORD26 /// SNORD27 /// SNORD28 /// SNORD29 /// SNORD31 / Fold change vs veh, SNHG1 /// SNORD22 /// SNORD25 /// SNORD26 /// SNORD27 /// SNORD28 /// SNORD29 /// SNORD31 / Fold change (Aza/veh), C12orf56 (ProbeSet 11735607_a_at) / Fold change (ACY-1035/veh), C12orf56 (ProbeSet 11735607_a_at) / Fold change (Aza/veh), FGFR1OP (ProbeSet 11751329_s_at) / Fold change (ACY-1035/veh), FGFR1OP (ProbeSet 11751329_s_at) / Fold change (Aza/veh), VPS36 (ProbeSet 11739960_a_at) / Fold change (ACY-1035/veh), VPS36 (ProbeSet 11739960_a_at) / RFU SYPL1 (11715823_x_at) / Fold change /veh SYPL1 (11715823_x_at) / RFU IGFBP7 (11715501_s_at) / Fold change /veh IGFBP7 (11715501_s_at) / RFU REEP3 (11722064_at) / Fold change /veh REEP3 (11722064_at) / RFU IGLL1 (11728026_x_at) / Fold change /veh IGLL1 (11728026_x_at): dose or concentration left out as unconfirmed. Conditions: MV-4-11 cells, 48 hours.

Each structure is given as a SMILES string.

`Nc1ncn([C@@H]2O[C@H](CO)[C@@H](O)[C@H]2O)c(=O)n1` [azacitidine]: the “Fold change /veh SPINT1 (11716480_a_at)” value came to 1.00.

(Values after paper PMC5218480 (PLoS ONE, 2017).)
